Assay results from ChEMBL document CHEMBL1201862, “PubChem BioAssay data set” (2004).
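The compound was tested at five concentrations on cells cultured in 96-well plates, with a 48-hour exposure period. At the GI50, growth is halved.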 Calls of active or inactive are those of the source. Rule as the data show it: active = GI50 up to about 1.1 µM and inactive = higher.

Tests used:
Test in all cases: growth of human tumour cells (NCI), 48 h
786-0 = system: 786-0
A498 = system: A498
A549 = system: A549
ACHN = system: ACHN
CAKI-1 = system: CAKI-1
CCRF-CEM = system: CCRF-CEM
COLO 205 = system: COLO 205
DLD-1 = system: DLD-1
DMS-114 = system: DMS-114
DMS-273 = system: DMS-273
EKVX = system: EKVX
HCC 2998 = system: HCC 2998
HCT-116 = system: HCT-116
HCT-15 = system: HCT-15
HL-60 = system: HL-60
HOP-18 = system: HOP-18
HOP-62 = system: HOP-62
HOP-92 = system: HOP-92
HT-29 = system: HT-29
IGROV-1 = system: IGROV-1
K562 = system: K562
KM-20L2 = system: KM-20L2
KM12 = system: KM12
LOX IMVI = system: LOX IMVI
LXFL 529 = system: LXFL 529
M14 = system: M14
M19-MEL = system: M19-MEL
MOLT-4 = system: MOLT-4
Malme-3M = system: Malme-3M
NCI-H226 = system: NCI-H226
NCI-H23 = system: NCI-H23
NCI-H460 = system: NCI-H460
NCI-H522 = system: NCI-H522
OVCAR-3 = system: OVCAR-3
OVCAR-4 = system: OVCAR-4
OVCAR-5 = system: OVCAR-5
OVCAR-8 = system: OVCAR-8
RXF 393 = system: RXF 393
SF-268 = system: SF-268
SF-295 = system: SF-295
SF-539 = system: SF-539
SK-MEL-28 = system: SK-MEL-28
SK-MEL-2 = system: SK-MEL-2
SK-MEL-5 = system: SK-MEL-5
SK-OV-3 = system: SK-OV-3
SN12C = system: SN12C
SNB-19 = system: SNB-19
SNB-75 = system: SNB-75
SNB-78 = system: SNB-78
SR = system: SR
SW-620 = system: SW-620
TK-10 = system: TK-10
U-251 = system: U-251
UACC-257 = system: UACC-257
UACC-62 = system: UACC-62
UO-31 = system: UO-31
XF498 = system: XF498
RPMI-8226 = system: RPMI-8226
RXF 631 = system: RXF 631

C[N+]1=C(c2cccnc2/C=N/O)OCC1(C)C
GI50 (786-0): > 100 µM (inactive)
GI50 (A498): > 100 µM (inactive)
GI50 (A549): > 100 µM (inactive)
GI50 (ACHN): > 100 µM (inactive)
GI50 (CAKI-1): > 100 µM (inactive)
GI50 (CCRF-CEM): > 100 µM (inactive)
GI50 (COLO 205): > 100 µM (inactive)
GI50 (DLD-1): > 100 µM (inactive)
GI50 (DMS-114): > 100 µM (inactive)
GI50 (DMS-273): > 100 µM (inactive)
GI50 (EKVX): > 100 µM (inactive)
GI50 (HCC 2998): > 100 µM (inactive)
GI50 (HCT-116): > 100 µM (inactive)
GI50 (HCT-15): > 100 µM
GI50 (HL-60): > 100 µM (inactive)
GI50 (HOP-18): > 100 µM (inactive)
GI50 (HOP-62): > 100 µM (inactive)
GI50 (HOP-92): > 100 µM (inactive)
GI50 (HT-29): > 100 µM (inactive)
GI50 (IGROV-1): > 100 µM (inactive)
GI50 (K562): > 100 µM (inactive)
GI50 (KM-20L2): > 100 µM (inactive)
GI50 (KM12): > 100 µM (inactive)
GI50 (LOX IMVI): > 100 µM (inactive)
GI50 (LXFL 529): > 100 µM (inactive)
GI50 (M14): > 100 µM (inactive)
GI50 (M19-MEL): > 100 µM (inactive)
GI50 (MOLT-4): > 100 µM (inactive)
GI50 (Malme-3M): > 100 µM (inactive)
GI50 (NCI-H226): < 0.01 µM (active)
GI50 (NCI-H23): > 100 µM (inactive)
GI50 (NCI-H460): > 100 µM (inactive)
GI50 (NCI-H522): > 100 µM (inactive)
GI50 (OVCAR-3): > 100 µM (inactive)
GI50 (OVCAR-4): > 100 µM (inactive)
GI50 (OVCAR-5): > 100 µM (inactive)
GI50 (OVCAR-8): > 100 µM (inactive)
GI50 (RXF 393): > 100 µM (inactive)
GI50 (SF-268): > 100 µM (inactive)
GI50 (SF-295): > 100 µM (inactive)
GI50 (SF-539): > 100 µM (inactive)
GI50 (SK-MEL-28): > 100 µM (inactive)
GI50 (SK-MEL-2): > 100 µM (inactive)
GI50 (SK-MEL-5): > 100 µM (inactive)
GI50 (SK-OV-3): > 100 µM (inactive)
GI50 (SN12C): > 100 µM (inactive)
GI50 (SNB-19): > 100 µM (inactive)
GI50 (SNB-75): > 100 µM (inactive)
GI50 (SNB-78): > 100 µM (inactive)
GI50 (SR): > 100 µM (inactive)
GI50 (SW-620): > 100 µM (inactive)
GI50 (TK-10): > 100 µM (inactive)
GI50 (U-251): > 100 µM (inactive)
GI50 (UACC-257): > 100 µM (inactive)
GI50 (UACC-62): > 100 µM (inactive)
GI50 (UO-31): > 100 µM (inactive)
GI50 (XF498): > 100 µM (inactive)

CC(=O)C(CN(Cc1ccccc1)Cc1ccccc1)C(c1ccccc1)c1c(O)c2ccccc2oc1=O (centres undefined)
GI50 (786-0): > 100 µM (inactive)
GI50 (A498): > 100 µM (inactive)
GI50 (A549): > 100 µM (inactive)
GI50 (ACHN): > 100 µM (inactive)
GI50 (CAKI-1): > 100 µM (inactive)
GI50 (CCRF-CEM): > 100 µM (inactive)
GI50 (DLD-1): > 100 µM (inactive)
GI50 (EKVX): > 100 µM (inactive)
GI50 (HCT-116): > 100 µM (inactive)
GI50 (HCT-15): > 100 µM
GI50 (HL-60): > 100 µM (inactive)
GI50 (HOP-62): > 100 µM (inactive)
GI50 (HOP-92): 18.9 µM (inactive)
GI50 (HT-29): > 100 µM (inactive)
GI50 (IGROV-1): > 100 µM (inactive)
GI50 (K562): > 100 µM (inactive)
GI50 (KM-20L2): > 100 µM (inactive)
GI50 (KM12): > 100 µM (inactive)
GI50 (LOX IMVI): > 100 µM (inactive)
GI50 (LXFL 529): > 100 µM (inactive)
GI50 (M14): > 100 µM (inactive)
GI50 (M19-MEL): > 100 µM (inactive)
GI50 (Malme-3M): > 100 µM (inactive)
GI50 (NCI-H226): > 100 µM (inactive)
GI50 (NCI-H23): > 100 µM (inactive)
GI50 (NCI-H460): > 100 µM (inactive)
GI50 (NCI-H522): > 100 µM (inactive)
GI50 (OVCAR-3): > 100 µM (inactive)
GI50 (OVCAR-4): > 100 µM (inactive)
GI50 (OVCAR-5): > 100 µM (inactive)
GI50 (OVCAR-8): > 100 µM (inactive)
GI50 (RPMI-8226): > 100 µM (inactive)
GI50 (RXF 393): > 100 µM (inactive)
GI50 (RXF 631): > 100 µM (inactive)
GI50 (SF-268): > 100 µM (inactive)
GI50 (SF-295): > 100 µM (inactive)
GI50 (SF-539): > 100 µM (inactive)
GI50 (SK-MEL-2): > 100 µM (inactive)
GI50 (SK-MEL-5): > 100 µM (inactive)
GI50 (SK-OV-3): > 100 µM (inactive)
GI50 (SN12C): > 100 µM (inactive)
GI50 (SNB-19): > 100 µM (inactive)
GI50 (SNB-75): > 100 µM (inactive)
GI50 (SNB-78): > 100 µM (inactive)
GI50 (SR): > 100 µM (inactive)
GI50 (SW-620): 71.4 µM (inactive)
GI50 (TK-10): > 100 µM (inactive)
GI50 (U-251): > 100 µM (inactive)
GI50 (UACC-257): > 100 µM (inactive)
GI50 (UACC-62): > 100 µM (inactive)
GI50 (UO-31): > 100 µM (inactive)
GI50 (XF498): > 100 µM (inactive)
